The values that follow come from patent US9505798B2, “Steroid compounds as RORyt modulators and uses thereof” (New York University, priority 2010, dated 2016).

pIC50: −log10 of the molar value. Where two headings read alike, the source gives them in different places.

One experiment has as its target T1, mouse RORγt (Mus musculus, UniProt P51450).
T1 construct: mouse RORγt (amino acids 79 to the carboxyl terminal end); expressed in transfected cells
T1 sequence (P51450 79-495 isoform P51450-2): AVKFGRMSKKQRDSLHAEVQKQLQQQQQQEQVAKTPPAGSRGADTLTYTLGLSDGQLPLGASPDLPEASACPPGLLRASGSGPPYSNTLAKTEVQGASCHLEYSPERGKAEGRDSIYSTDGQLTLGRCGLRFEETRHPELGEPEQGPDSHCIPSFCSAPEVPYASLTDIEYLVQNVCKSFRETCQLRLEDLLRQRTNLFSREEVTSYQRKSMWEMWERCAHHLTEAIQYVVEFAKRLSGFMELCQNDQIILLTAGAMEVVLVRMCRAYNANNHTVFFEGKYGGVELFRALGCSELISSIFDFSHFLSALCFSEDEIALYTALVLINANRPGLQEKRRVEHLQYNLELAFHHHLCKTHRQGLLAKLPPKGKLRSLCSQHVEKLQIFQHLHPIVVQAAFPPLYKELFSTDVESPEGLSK
Description: Drosophila S2 cell RORγt luciferase reporter. It is filed as cell-based. The source says:
The Drosophila S2 cell line was originally purchased from Invitrogen and was maintained in Schneider's medium supplemented with 10% heat-inactivated bovine fetal calf serum and antibiotics (Invitrogen). […] The resulting chimeric gene was subcloned into the copper inducible pMT/V5-His A vector (Invitrogen). […] Coding sequences for firefly luciferase (Promega) were PCR amplified and subcloned into pUAST vector containing Gal4 binding enhancer sequences. Renilla luciferase construct under the polIII promoter was obtained from Dr. Dasgupta's laboratory (NYU medical center). In order to generate stable cell lines, cells were co-transfected with pMT-G4 DBD-RORγt, pMT-G4 DBD-RORα, pMT-G4 DBD-DHR3, or pMT-G4 DBDVP16 and pHygro plasmids (Invitrogen) and screened for resistant colonies in the presence of hygromycin (0.3 mg/mL). […] Using similar methods, stable clones with genomic integration of the luciferase reporters and other reporters were generated such as pMT-RORα_luc, pMT-DHR3_Luc, or pMT-VP16_luc.
The following representative compounds are tested for their RORγt inhibitory activity and toxicity.
Promega Dual-Glo system is widely used for HTS as the luciferase substrates. Cell culture medium was reduced to the final volume of 10 μl or less and 10 μl of Dual-glo and 10 μl of Stop-glo luciferase substrates were added in a sequencial manner (Promega). Firefly and Renilla luciferase activity was determined by measuring luminescence signals using an automated 384-well plate reader equipped with multiple stack units (such as the Analyst GT or Envision plate readers).
10,000 Drosophila stable S2 cells with genomic integration of the Cu2+-inducible G4 DBD-mouse RORγ construct were transfected with 5 ng of pUASTfirefly luciferase and 7 ng of Pol III-Renilla luciferase and dispensed into white bottom-tissue culture 384-well plates (Corning). […] The following morning, Stop-glo luciferase substrates (Promega) were used to measure luciferase activity.
The Drosophila S2 cell line was originally purchased from Invitrogen and was maintained in Schneider's Drosophila medium supplemented with 10% heat-inactivated bovine fetal calf serum and 1× antibiotic-antimycotic solution (Invitrogen). […] The resulting chimeric gene was subcloned into the copper inducible pMT/V5-His A vector (Invitrogen) and into the constitutive pAc vector. […] Coding sequences for firefly luciferase (Promega) were PCR amplified and subcloned into the pUAST vector containing five Gal4 binding enhancer sequences. The Renilla luciferase construct under a pol III promoter and the pAc vector were obtained from R. Dasgupta (NYU School of Medicine). To generate cell lines stably expressing various chimeric proteins upon copper addition, S2 cells were co-transfected with pMT plasmids encoding individual G4 DBD chimeric constructs and the pCoHygro plasmid (Invitrogen), before screening for resistant colonies in the presence of hygromycin (0.3 mg/mL). […] The human androgen receptor (hAR) expression plasmid pMK33-hAR and its reporter TAT3-Luc were obtained from M. Garabedian (NYU School of Medicine). […] R1881 (10 nM) and Dafachronic acid (10 μM) were used as ligands for hAR and Daf12. Upon treatment of cells with copper, in 384 well plates, there was specific increase in firefly luciferase activity versus normalized Renilla luciferase activity for all cell lines described above, validating the method for high-throughput screen.
Transfections of firefly and Renilla reporter constructs were performed using the Effectene kit from Qiagen according to the manufacturer's protocol with some modifications.

A further experiment concerns the target T2, human RORγ LBD (Homo sapiens, UniProt P51449).
T2 construct: Human RORγ LBD (residues 262-518); 6×His-tag (N); thrombin cleavage site (N); made in house; host or cells: E. coli BL21-CodonPlus(DE3)-RIL, pET46 Ek/Lic vector
The experiment in a line: In vitro binding and competition assay (fluorescence polarization, fluorescein-labeled 25-hydroxycholesterol). The protocol:
All DNA constructs were generated by PCR-based methodology and confirmed by sequencing. […] IL-17a, IFN-γ, IL-4, and CCR6 protein expression was examined by intracellular or surface staining according to the manufacturer's protocol.
The cells were induced with 0.5 mM IPTG at 16° C. overnight, then collected and lysed in 20 mM Tris-HCl (pH 8.0), 500 mM NaCl, 20 mM imidazole and 10% glycerol. Supernatant was loaded onto a HisTrap™ FF crude 5 mL column on an AKTAxpress HPLC system. The protein was eluted with a 20-500 mM imidazole gradient, dialyzed overnight against 20 mM Tris-HCl (pH 8.0) and 200 mM NaCl, and further purified on a Q Sepharose™ Fast Flow anion exchange column (Amersham Biosciences). The flow-through fraction containing pure RORγ LBD protein was collected, and DTT was added to 10 mM immediately after calculating protein concentration by OD280. For the binding assay, 2 nM Fluorescein-labeled 25-hydroxycholesterol was incubated with purified RORγ LBD protein for 2 hrs at room temperature. Protein concentration was varied by serial dilution in binding buffer (20 mM Tris-HCl (pH 8.0), 200 mM NaCl, 10 mM DTT). Fluorescent polarization signals were measured with a Beacon 2000 (PanVera).

Experiment [1] concerns Th17 cell transfer-mediated EAE. Description: Th17 cell transfer-mediated (passive) EAE. It is filed as in vivo, mouse. The conditions noted are these: daily from day 2, RAG-2-deficient mice.

T2 sequence (P51449 262-518): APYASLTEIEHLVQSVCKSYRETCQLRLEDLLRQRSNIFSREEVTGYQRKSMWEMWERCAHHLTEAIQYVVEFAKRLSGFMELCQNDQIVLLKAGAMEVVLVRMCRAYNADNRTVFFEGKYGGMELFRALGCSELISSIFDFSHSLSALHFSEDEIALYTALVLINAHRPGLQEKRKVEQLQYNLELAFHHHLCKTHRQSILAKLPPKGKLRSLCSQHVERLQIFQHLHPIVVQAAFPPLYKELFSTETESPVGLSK

Turning to `CC1O[C@@H](OC2C(C)O[C@H](OC3C(C)O[C@@H](O[C@H]4CC[C@@]5(C)[C@H](CC[C@@H]6[C@@H]5C[C@@H](O)[C@]5(C)[C@@H](C(CO)CCO)CC[C@]65O)C4)C[C@H]3O)C[C@H]2O)C[C@@H](O)C1O` (stereo partly shown) [Compound 13, 20,22-Dihydrodigoxin-21,23-diol], at mouse RORγt, the pIC50 is 4.70 to 4.96 and the “effect on RORγ transcriptional activity” value is reported as “still possessed RORγ inhibitory activity”. On human RORγ LBD, this compound showed a pIC50 of 4.92.
On to `C[C@H]1O[C@@H](O[C@H]2[C@@H](O)C[C@H](O[C@H]3[C@@H](O)C[C@H](O[C@H]4CC[C@@]5(C)[C@H](CC[C@@H]6[C@@H]5C[C@@H](O)[C@]5(C)[C@@H](C7=CC(=O)OC7)CC[C@]65O)C4)O[C@@H]3C)O[C@@H]2C)C[C@H](O)[C@@H]1O` [Digoxin], for which the pIC50 on mouse RORγt (S2 cell RORγt reporter, read-out: IC50) is 5.00 to 6.00; at mouse RORγt (read-out: IC50 (half-maximal inhibitory concentration), RORγ transcriptional activity), 5.70; on human RORγ LBD (in vitro competition assay, human RORγ LBD, read-out: IC50, displacement of fluorescein-labeled 25-hydroxycholesterol), 5.39. For the same compound, the “onset and severity of Th17 cell transfer-mediated EAE” value in experiment [1] was “delayed onset and reduced severity”.
